How the values were obtained:
[1] = tested on: Established Type II Collagen Arthritis; experiment: Established type II collagen arthritis, PO BID, 11 day
Source text: Effects of 1H-pyrrolo[2,3-b]pyridine series of compounds Administered PO, BID in 11 Day DBA/1OlaHsd Mouse Established Type II Collagen Arthritis

[2] = target: JAK3 (Homo sapiens (Human), UniProt P52333); experiment: JAK3 kinase assay (radiometric filter assay); format: biochemical; details: 10 μM ATP; 10-dose IC50 mode, 3 fold serial dilution starting at 100 μM; read-out: JAK3 kinase inhibition
JAK3, sequence (P52333 whole entry): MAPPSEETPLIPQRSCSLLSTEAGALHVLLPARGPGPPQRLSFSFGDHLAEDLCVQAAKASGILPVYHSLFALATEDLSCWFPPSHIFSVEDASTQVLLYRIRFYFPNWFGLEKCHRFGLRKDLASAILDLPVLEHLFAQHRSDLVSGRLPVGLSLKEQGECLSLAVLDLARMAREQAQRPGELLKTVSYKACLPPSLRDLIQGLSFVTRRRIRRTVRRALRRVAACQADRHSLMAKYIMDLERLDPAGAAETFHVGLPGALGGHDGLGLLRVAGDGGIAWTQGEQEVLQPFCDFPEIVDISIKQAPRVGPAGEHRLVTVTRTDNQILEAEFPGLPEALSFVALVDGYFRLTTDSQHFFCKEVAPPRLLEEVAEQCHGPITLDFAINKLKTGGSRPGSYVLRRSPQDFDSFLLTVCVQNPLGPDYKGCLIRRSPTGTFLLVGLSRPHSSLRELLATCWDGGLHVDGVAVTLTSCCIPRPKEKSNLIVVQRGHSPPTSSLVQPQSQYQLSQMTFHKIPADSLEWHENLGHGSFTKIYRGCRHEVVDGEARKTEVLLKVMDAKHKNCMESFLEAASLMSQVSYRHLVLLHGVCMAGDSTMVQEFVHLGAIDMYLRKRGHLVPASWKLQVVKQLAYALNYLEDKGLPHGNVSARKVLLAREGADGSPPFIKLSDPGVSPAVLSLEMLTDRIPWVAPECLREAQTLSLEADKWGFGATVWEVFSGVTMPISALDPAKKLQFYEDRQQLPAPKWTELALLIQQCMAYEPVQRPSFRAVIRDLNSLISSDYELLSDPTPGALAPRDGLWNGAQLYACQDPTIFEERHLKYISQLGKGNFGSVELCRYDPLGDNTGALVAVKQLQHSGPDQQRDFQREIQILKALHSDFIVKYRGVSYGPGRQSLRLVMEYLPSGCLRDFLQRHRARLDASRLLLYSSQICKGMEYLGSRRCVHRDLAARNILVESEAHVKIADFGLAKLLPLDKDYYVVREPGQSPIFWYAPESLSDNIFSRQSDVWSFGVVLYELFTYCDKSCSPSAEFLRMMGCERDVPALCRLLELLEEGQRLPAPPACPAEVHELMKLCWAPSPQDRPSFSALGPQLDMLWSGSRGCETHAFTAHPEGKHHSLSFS
Protocol: (§1) All additions were done on ice, followed by the addition of ATP mix. Wells were uniformly mixed using an Eppendorff plate shaker and incubated at 30° C. for 20 min, and stopped by the addition of 5 μL of 3% phosphoric acid. Volume was increased to 100 μL by adding 0.8% phosphoric acid which was then transferred to PC filter mats (Millipore), pre-equilibrated with 70% ethanol and water. Plates were washed thrice with 100 μL 0.8% phosphoric acid and dried for an hour at 60° C. 100 μL scintillation fluid was added into each well and reading taken in Perkin Elmer TOPCOUNT beta counter.
(§2) The reactions were carried out at 10 μM ATP for ITK, JAK3 and other TEC and Janus family of kinase.

[3] = target: ITK (Homo sapiens (Human), UniProt Q08881); experiment: ITK kinase assay (radiometric filter assay); format: biochemical; details: 10 μM ATP; 10-dose IC50 mode, 3 fold serial dilution starting at 100 μM; read-out: ITK kinase inhibition
ITK, sequence (Q08881 whole entry): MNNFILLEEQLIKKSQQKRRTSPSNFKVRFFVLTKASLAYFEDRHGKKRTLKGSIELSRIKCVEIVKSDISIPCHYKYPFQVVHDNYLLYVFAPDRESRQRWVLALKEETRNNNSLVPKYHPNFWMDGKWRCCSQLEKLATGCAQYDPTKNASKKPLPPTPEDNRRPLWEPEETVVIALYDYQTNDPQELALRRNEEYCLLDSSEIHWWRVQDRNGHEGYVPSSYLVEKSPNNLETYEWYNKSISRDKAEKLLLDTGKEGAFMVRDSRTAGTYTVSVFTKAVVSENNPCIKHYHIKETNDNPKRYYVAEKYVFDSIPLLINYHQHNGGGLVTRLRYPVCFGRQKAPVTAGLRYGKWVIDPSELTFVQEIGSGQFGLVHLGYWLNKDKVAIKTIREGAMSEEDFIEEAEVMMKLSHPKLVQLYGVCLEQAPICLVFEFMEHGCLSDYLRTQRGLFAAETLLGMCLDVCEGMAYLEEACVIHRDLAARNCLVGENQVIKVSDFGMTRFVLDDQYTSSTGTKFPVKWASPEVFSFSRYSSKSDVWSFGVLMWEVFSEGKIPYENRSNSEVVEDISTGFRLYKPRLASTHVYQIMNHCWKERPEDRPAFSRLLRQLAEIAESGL
Protocol: as §1, §2

Structure (SMILES) | body weight ([1]; 60 mg/Kg) | effectiveness, suppression of the inflammatory response ([1]; collagen-induced arthritis in mice, PO BID) [%] | IC50 [2] [nM] | IC50 [3] [nM]
C[C@@H]1CCN(C(=O)CC#N)C[C@@H]1N(C)c1ncnc2[nH]ccc12 [CP-690550/Tofacitinib, Tofacitinib] | body weight change from day 1 | 97 |  | 
CCC#CC(=O)Nc1cc(-c2cnc3[nH]cc(C)c3c2)ccc1F [Example 31, N-(2-fluoro-5-(3-methyl-1H-pyrrolo[2,3-b]pyridin-5-yl)phenyl)pent-2-ynamide] |  |  | < 100 | < 100
C=CC(=O)Nc1cccc(-c2cnc3[nH]cc(NS(=O)(=O)CCC)c3c2)c1 [Example 97, N-(3-(3-(propylsulfonamido)-1H-pyrrolo[2,3-b]pyridin-5-yl)phenyl)acrylamide] |  |  | > 100 | > 100
